Assay results published in patent US20180244653A1, “SELECTIVE ALPHA-7 NICOTINIC RECEPTOR AGONISTS AND METHODS FOR MAKING AND USING THEM” (THE REGENTS OF THE UNIVERSITY OF CALIFORNIA, priority 2015, published 2018).
Values joined by “and” are separate entries in the source; they are usually repeats but may differ in a detail not shown here. Identical values can stand only once. “Also recorded” adds a separate entry of the source. Like-named read-outs stand apart in the source and are kept apart here.

Assays:
[1] = system: physiologically induced amnesia mice; test: ORT with 24 h time delay (natural memory loss); type: in vivo; settings: i.p.; for Discrimination index / cognition enhancement, ORT time delay vs control group: 24 h delay; for Minimum effective dose, RT^§: physiologically induced amnesia (memory retention) model, ICR mice
Procedure: Both compounds were further evaluated on a physiologic amnesic model by using ORT with 24 h time delay to induce natural memory loss in mice. The appropriate time delay causing amnesia was initially selected by varying delay times (24, 48, and 72 h) between sample and test phase that have identical and different objects, respectively. […] Therefore, 24 h was used as the time delay between sample and test phase.
FIG. 27 illustrates exploration time to familiar (F) and novel (N) objects in test phase of ORT following a time delay. Each mouse was allowed to explore an open field apparatus for 5 min in a habituation phase one day before a sample phase. In the test day, vehicle (SH) and test compounds IND8, QND8 and PNU were injected 1 h before measurement of exploration time. Each mouse was allowed to explore 2 identical objects in the sample phase for 5 min. On the next day (24 h), one of the objects was changed to a new one and the mouse was allowed to explore these objects for 5 min. The exploration time of these objects was recorded. Data are presented as means±SE, n=6-8 mice/group. **p<0.01, ***p<0.001 vs exploration time of familiar object, paired student's t-test.
The DI was calculated and compared with the control group to evaluate IND8, QND8, and PNU-282987 enhancement of cognitive function. Data are shown in FIG. 28, which illustrates discrimination index (TN−TF/TN+TF) of each compound in the test phase of ORT with time delay protocol. There was a significant difference in DI (F6,43=6.097, p<0.001, n=6-8 mice/group). **p<0.01, ***p<0.001 vs vehicle group (SH), one-way ANOVA with Fisher's LSD post hoc comparison.
The apparatus used in this experiment was the same as ORT test. This experiment was divided into 2 parts directed to dose finding and establishing mechanism of action.
For dose finding protocol, the mice were randomly divided into different treatment groups, a control group receiving a vehicle and tested groups receiving PNU-282987 at 3, 10 mg/kg, and IND8, QND8 for 10, 25 μmol/kg, single dose. They were allowed to freely explore the open field apparatus for 5 min for habituation in a day before the experiment (day 1). On the test day (day 2), the test compound was injected 1 h before the sample phase. In this phase, mice were placed in the apparatus to explore two identical objects. On the next day (day 3), one object was changed to a new one and mice were allowed to explore these objects for 5 min in the test phase. For proving cognitive enhancement mediated through α7-nAChRs, the protocol was the same as mentioned above except MLA (3 mg/kg), selective α7-nAChR antagonist, was injected 5 min before test compounds in the sample phase (day 2) to block the cognitive enhancement effect from test compounds. The dose of test compounds is selected from the effective dose from the former experiment. The exploration time of each object was recorded if the nose of mouse came within 3 cm or touched the objects. The discrimination index (DI) was calculated by using (TN−TF)/(TN+TF); TN and TF represented exploration time of new and familiar objects, respectively.

α4β2-nAChRs = target: T1, α4β2-nAChRs (Homo sapiens, UniProt P17787+P43681); test: FRET functional assay (agonist/antagonist) using LGIC-CNiFERs; type: cell-based; settings: for EC50: read-out: EC50 ± SD, α4β2; for Functional properties at α4β2-nAChRs (agonist / antagonist, type): functional screening and characterization
T1 construct: expressed in transfected cells; host or cells: HEKtsA201 cells co-expressing TN-XXL
T1 sequence (P43681 29-627 limits assumed): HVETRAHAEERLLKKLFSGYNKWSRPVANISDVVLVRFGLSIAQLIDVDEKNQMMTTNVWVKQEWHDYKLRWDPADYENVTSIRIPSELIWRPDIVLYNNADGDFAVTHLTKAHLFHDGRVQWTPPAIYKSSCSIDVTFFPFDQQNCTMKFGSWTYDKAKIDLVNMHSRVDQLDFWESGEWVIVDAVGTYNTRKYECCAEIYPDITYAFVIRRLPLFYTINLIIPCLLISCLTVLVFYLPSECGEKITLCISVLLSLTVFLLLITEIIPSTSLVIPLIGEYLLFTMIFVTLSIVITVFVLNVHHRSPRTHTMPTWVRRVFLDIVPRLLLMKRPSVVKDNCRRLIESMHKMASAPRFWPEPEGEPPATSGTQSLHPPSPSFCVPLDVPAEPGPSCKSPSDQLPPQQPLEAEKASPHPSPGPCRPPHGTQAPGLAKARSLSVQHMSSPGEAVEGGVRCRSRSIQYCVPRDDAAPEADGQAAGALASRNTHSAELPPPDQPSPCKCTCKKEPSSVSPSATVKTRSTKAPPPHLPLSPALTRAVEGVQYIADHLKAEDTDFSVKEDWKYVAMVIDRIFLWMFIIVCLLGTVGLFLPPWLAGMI
T1 sequence (P17787 26-502): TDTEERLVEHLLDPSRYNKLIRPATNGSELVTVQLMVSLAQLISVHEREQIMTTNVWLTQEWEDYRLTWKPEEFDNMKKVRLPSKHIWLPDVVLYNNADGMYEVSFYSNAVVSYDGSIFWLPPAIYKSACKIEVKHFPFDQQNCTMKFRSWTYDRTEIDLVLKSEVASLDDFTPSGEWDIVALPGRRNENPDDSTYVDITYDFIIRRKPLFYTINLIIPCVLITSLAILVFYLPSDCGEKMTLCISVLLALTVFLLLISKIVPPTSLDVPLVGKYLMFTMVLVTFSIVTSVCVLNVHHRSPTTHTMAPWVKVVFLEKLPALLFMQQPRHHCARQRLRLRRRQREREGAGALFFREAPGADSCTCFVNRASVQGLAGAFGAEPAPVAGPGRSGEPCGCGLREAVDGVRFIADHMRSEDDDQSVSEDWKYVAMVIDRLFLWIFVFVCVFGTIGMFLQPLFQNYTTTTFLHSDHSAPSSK

α7-nAChRs = target: T2, α7-nAChRs (Homo sapiens, UniProt P36544); test: as above; type: cell-based
T2 construct: expressed in transfected cells; host or cells: HEKtsA201 cells co-expressing TN-XXL
T2 sequence (P36544 23-502): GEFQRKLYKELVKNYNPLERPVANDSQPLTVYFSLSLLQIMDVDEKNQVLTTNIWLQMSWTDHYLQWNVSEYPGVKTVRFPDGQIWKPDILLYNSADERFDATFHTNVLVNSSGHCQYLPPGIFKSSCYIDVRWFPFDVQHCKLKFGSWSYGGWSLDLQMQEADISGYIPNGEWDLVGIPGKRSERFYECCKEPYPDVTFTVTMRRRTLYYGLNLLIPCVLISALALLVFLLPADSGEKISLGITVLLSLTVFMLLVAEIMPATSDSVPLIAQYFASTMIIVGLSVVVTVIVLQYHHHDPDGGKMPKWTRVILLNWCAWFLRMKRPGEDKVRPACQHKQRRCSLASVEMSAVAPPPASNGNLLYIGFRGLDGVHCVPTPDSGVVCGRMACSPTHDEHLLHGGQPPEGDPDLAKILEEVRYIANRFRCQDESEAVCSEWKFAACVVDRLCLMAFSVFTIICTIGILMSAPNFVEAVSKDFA

[2] = >10 = did not pass initial screen
[3] = in presence of 10 μM PNU-120596, * partial agonist, >10 = did not pass initial screen, read-out: Agonist EC50 ± SD, α7

Row | SMILES | Discrimination index / cognition enhancement, ORT time delay vs control group [1] | Minimum effective dose, RT^§ [1] | EC50 (α4β2-nAChRs; [2]) | Kd (α4β2-nAChRs; competitive antagonist (^C), >10 = did not pass initial screen, vs (±)-epibatidine, read-out: Antagonist KA ± SD, α4β2) | Functional properties at α4β2-nAChRs (agonist / antagonist, type) (α4β2-nAChRs) | Fold increase in α7-nAChR agonist potency over lead compound TTIn-1 (α7-nAChRs) | EC50 (α7-nAChRs; [3]) | Kd (α4β2-nAChRs; Antagonist KA ± SD, α4β2, competitive antagonist (^C), >10 = did not pass initial screen, vs (±)-epibatidine) | EC50 (α7-nAChRs; Agonist EC50 ± SD, α7) | Antagonist KA ± SD, α4β2 (α4β2-nAChRs; competitive antagonist (^C), >10 = did not pass initial screen, vs (±)-epibatidine)
1 | c1cc2cc(-c3cn(C4CN5CCC4CC5)nn3)ccc2[nH]1 (stereo not drawn) [IND8, 5-((Quinuclid-3-yl)-1H-1,2,3-triazol-4-yl)-1H-indole] | able to enhance cognition; also recorded: significantly higher than that of control group | 10 µmol/kg | > 10000 nM | >10000 nM | did not elicit agonist or antagonist properties | 20 fold | 30 nM and 28 nM | – | – | –
2 | O=C(N[C@H]1CN2CCC1CC2)c1ccc(Cl)cc1 [PNU-282987, reference compound] | able to enhance cognition; also recorded: significantly higher than that of control group | 10 µmol/kg | > 10000 nM | – | – | – | – | > 10000 nM | 110 ± 10 nM | –
3 | Oc1ccc(-c2cn(C3CN4CCC3CC4)nn2)cc1 (stereo not drawn) [QND8, 3-(4-hydroxyphenyl-1,2,3-triazol-1-yl) quinuclidine] | able to enhance cognition; also recorded: significantly higher than that of control group | 10 µmol/kg | – | – | competitive antagonism | 20 fold | 40 nM and 37 nM | – | – | 6.2 ± 1.7^C μM
